What was measured:
amidohydrolase = assay: Enzyme characterization with heat-treated cell-free extract; type: biochemical, Klebsiella oxytoca PRS1K17 (DSM 11623); conditions: for effect of methanol on the amidohydrolase: methanol 5 to 20%, 40 and 60° C., substrate 1% (64 mM), 100 mM CAPS buffer pH 10.0
Description: A heat-treated cell-free extract was employed for characterizing the amidase. Cells of Klebsiella oxytoca PRS1K17 (DSM 11623) (OD650=160) were disrupted by passing through a French press at 19000 psi (1309 bar). Benzonase (1 μl×30 ml extract^−1) was added, and the extract was then centrifuged for 1 hour at 20000×g. The supernatant (approx. 20 mg×ml^−1 protein) was heated for 10 minutes at 70° C. and the precipitated protein was then removed by centrifugation. The supernatant (approx. 2.0 mg×ml^−1) was concentrated to 5.0 mg×ml^−1 protein and then stored at −20° C. The heat treatment removed approx. 90% of undesired protein. Up to a protein concentration of 0.5 mg×ml^−1, the reaction rate was in direct proportion to the protein concentration. A protein concentration of 0.2 mg×ml^−1 was therefore routinely employed in the tests. To determine the pH optimum, the concentration of (R,S)-2,2-HTFMPA (substrate) was 0.5% (32 mM) and the temperature was 40° C. The buffers listed in Table 4 were employed in the test.
The effect of the temperature on the reaction was determined in 100 mM CAPS buffer (pH 10.0) at a substrate concentration of 0.5% (32 mM). The effect of the substrate concentration was determined at 60° C. in 100 mM CAPS buffer (pH 10.0), and the effect of methanol at 40 and 60° C. at a substrate concentration of 1% (64 mM) in 100 mM CAPS buffer (pH 10.0). […] The temperature optimum is 70° C. […] 10.4 Enzyme Immobilization

[1] = Activity and stability of enzyme immobilized on Eupergit C; type: biochemical, Klebsiella oxytoca; conditions: 60° C., 4% racemic amide in 100 mM CAPS buffer (pH 10)
Description: The heat-treated cell-free extract was immobilized using Eupergit C (Röhm GmbH). To this end, Eupergit C (3.0 g) was added to 15 ml of heat-treated cell-free extract (protein concentration: 51 mg) in 1 M potassium phosphate buffer (pH 8.0). The mixture was incubated for 90 hours at room temperature with gentle stirring. The immobilized enzyme was filtered off and washed 4 times with 20 ml of 100 mM potassium phosphate buffer (pH 8.0). Support-bound enzyme (49 mg) gave 9.5 g of immobilized enzyme (fresh weight), which was stored in 100 mM potassium phosphate buffer (pH 10.0) at 4° C. To test the activity and stability of the immobilized enzyme, a small chromatography column was loaded with 5 g (25 mg of protein). A peristaltic pump (0.135 ml×min^−1) was used to circulate the substrate (100 ml 4% racemic amide in 100 mM CAPS buffer (pH 10)) between column and reservoir. The entire process was carried out in a water bath. At certain intervals, samples were taken for analysis. […] Three biotransformations (each with 4 g of racemic substrate, the first having been carried out at 60° C. and the remaining two at 40° C.) gave a total of 6 g of (S)-amide.

C[C@@](O)(C(N)=O)C(F)(F)F [(R)-2,2-HTFMPA, 3,3,3-trifluoro-2-hydroxy-2-methyl-propionamide]
Km (amidohydrolase; 60° C. in 100 mM CAPS buffer, pH 10): 32 mM

CO [methanol]
effect of methanol on the amidohydrolase (amidohydrolase): inhibitory effect | effect of methanol on the amidohydrolase (amidohydrolase; listed as Methanol): inhibit the reaction

B1: amidohydrolase: (R)-stereospecific amidohydrolase from Klebsiella oxytoca PRS1/PRS1K17, SEQ ID No. 2; tested as heat-treated cell-free extract (protein, listed as Klebsiella oxytoca)
chain: MKWLEESIMAKRGVGAGRKPVTHHLTEEMQKEFHYTIGPYSTPVLTIEPGDRIIVDTRDAFEGAINSEQDIPSQLLKMPFLNPQNGPIMVNGAEKGDVLAVYIESMLPRGVDPYGICAMIPHFGGLTGTDLTAMLNDPLPEKVRMIKLDSEKVYWSKRHTLPYKPHIGTLSVSPEIDSINSLTPDNHGGNMDVPDIGPGSITYPLVRAPGGRLFIGDAHACQGDGEICGTAVEFASITTIKVDLIKNWQLSWPRMENAENIMSIGSARPLEDATRIAYRDLIYWLVEDFGFEQWDAYMLLSQCGKVRLGNMVDPKYTVGAMLNKNLLV
specific activity [1]: 114 μg×min^−1×mg protein^−1

Source: patent US7553652B2, “Process for the preparation of (S)- or (R)-3,3,3-trifluoro-2-hydroxy-2-methylpropionic acid” (Lonza AG, priority 1996, dated 2009)
